From ChEMBL document CHEMBL6109167, “Novel PARP7 Inhibitors for Treating Cancer” (ACS Med Chem Lett, 2025) come the findings set out here.

The assay has as its target T1, Protein mono-ADP-ribosyltransferase TIPARP (Homo sapiens, UniProt Q7Z3E1).
T1 sequence (Q7Z3E1 whole entry): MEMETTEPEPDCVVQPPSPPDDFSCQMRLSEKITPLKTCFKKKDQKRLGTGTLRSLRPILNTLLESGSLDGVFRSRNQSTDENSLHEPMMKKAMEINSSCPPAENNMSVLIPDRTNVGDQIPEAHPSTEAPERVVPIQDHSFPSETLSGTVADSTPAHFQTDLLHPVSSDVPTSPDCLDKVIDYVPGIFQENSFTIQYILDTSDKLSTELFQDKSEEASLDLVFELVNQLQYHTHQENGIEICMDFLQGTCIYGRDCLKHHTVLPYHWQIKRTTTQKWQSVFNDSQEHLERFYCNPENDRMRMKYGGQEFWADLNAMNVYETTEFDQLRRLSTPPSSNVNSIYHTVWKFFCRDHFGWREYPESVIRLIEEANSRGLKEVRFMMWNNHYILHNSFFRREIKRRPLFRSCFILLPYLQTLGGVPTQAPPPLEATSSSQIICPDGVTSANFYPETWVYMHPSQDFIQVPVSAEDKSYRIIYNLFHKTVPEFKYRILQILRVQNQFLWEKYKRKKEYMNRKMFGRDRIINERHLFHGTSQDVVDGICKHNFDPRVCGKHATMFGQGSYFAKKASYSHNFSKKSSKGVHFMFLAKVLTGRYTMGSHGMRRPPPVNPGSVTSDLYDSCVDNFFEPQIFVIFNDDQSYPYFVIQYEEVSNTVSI
The assay is described as follows: Inhibition of PARP7 in human NCI-H1373 cells assessed as increase in STAT1 phosphorylation at Tyr701 incubated for 48 hrs by LANCE Ultra sandwich assay. Type of assay: cell-based. (TR-FRET usually uses a lanthanide donor and a delayed reading to cut background.)
As for `C[C@@H](C[C@H](F)Cn1ccc2cc(-c3ncc(C(F)F)c(N)n3)c(F)cc2c1=O)Oc1cn[nH]c(=O)c1C(F)(F)F`, the EC50 stood at 0.786 nM.

With `C[C@@H](C[C@@H](F)Cn1ccc2cc(-c3ncc(C(F)F)cn3)c(F)c(F)c2c1=O)Oc1cn[nH]c(=O)c1C(F)(F)F`, the EC50 worked out at 0.46 nM.

Consider `C[C@@H](C[C@@H](F)Cn1ccc2cc(-c3ncc(C(C)(F)F)cn3)c(F)c(F)c2c1=O)Oc1cn[nH]c(=O)c1C(F)(F)F`, for which the EC50 is 0.667 nM.

Turning to `C[C@@H](C[C@@H](F)Cn1ccc2cc(-c3ncc(Cl)cn3)c(F)c(F)c2c1=O)Oc1cn[nH]c(=O)c1C(F)(F)F`, the EC50 was 0.62 nM.

For the compound `COc1cnc(-c2cc3ccn(C[C@H](F)C[C@H](C)Oc4cn[nH]c(=O)c4C(F)(F)F)c(=O)c3c(F)c2F)nc1`, the half-maximal effective concentration (EC50) worked out at 0.375 nM.

Turning to `C[C@@H](C[C@H](F)Cn1cc(F)c2cc(-c3ncc(C(F)F)c(N)n3)c(F)cc2c1=O)Oc1cn[nH]c(=O)c1C(F)(F)F`, the EC50 was found to be 0.42 nM.

What is called EC50 is the concentration that produces a half-maximal response.
